# According to PubChem BioAssay (NCI):
#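 96-well plates; 48 h exposure; 5 concentrations. Endpoints by linear interpolation between flanking doses. Not reached: highest tested concentration assigned. GI50 marks 50% less growth. TGI denotes the concentration required for complete inhibition of growth.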
# Experiments:
# Test in all cases: growth of human tumour cells (NCI), 48 h
# 786-0 renal = tested on: 786-0 renal
# A549 NSCLC = tested on: A549 NSCLC
# ACHN renal = tested on: ACHN renal
# BT-549 breast = tested on: BT-549 breast
# CAKI-1 renal = tested on: CAKI-1 renal
# CCRF-CEM leukemia = tested on: CCRF-CEM leukemia
# COLO 205 colon = tested on: COLO 205 colon
# DU-145 prostate = tested on: DU-145 prostate
# EKVX NSCLC = tested on: EKVX NSCLC
# HCC-2998 colon = tested on: HCC-2998 colon
# HCT-116 colon = tested on: HCT-116 colon
# HCT-15 colon = tested on: HCT-15 colon
# HL-60(TB) leukemia = tested on: HL-60(TB) leukemia
# HOP-62 NSCLC = tested on: HOP-62 NSCLC
# HOP-92 NSCLC = tested on: HOP-92 NSCLC
# HS 578T breast = tested on: HS 578T breast
# HT29 colon = tested on: HT29 colon
# IGROV1 ovarian = tested on: IGROV1 ovarian
# K-562 leukemia = tested on: K-562 leukemia
# KM12 colon = tested on: KM12 colon
# LOX IMVI melanoma = tested on: LOX IMVI melanoma
# M14 melanoma = tested on: M14 melanoma
# MALME-3M melanoma = tested on: MALME-3M melanoma
# MCF7 breast = tested on: MCF7 breast
# MDA-MB-231 breast = tested on: MDA-MB-231 breast
# MDA-MB-435 = tested on: MDA-MB-435
# MOLT-4 leukemia = tested on: MOLT-4 leukemia
# NCI-H226 lung = tested on: NCI-H226 lung
# NCI-H23 lung = tested on: NCI-H23 lung
# NCI-H460 lung = tested on: NCI-H460 lung
# NCI-H522 lung = tested on: NCI-H522 lung
# NCI/ADR-RES ovarian = tested on: NCI/ADR-RES ovarian
# OVCAR-3 ovarian = tested on: OVCAR-3 ovarian
# OVCAR-4 ovarian = tested on: OVCAR-4 ovarian
# OVCAR-5 ovarian = tested on: OVCAR-5 ovarian
# OVCAR-8 ovarian = tested on: OVCAR-8 ovarian
# PC-3 prostate = tested on: PC-3 prostate
# RPMI-8226 leukemia = tested on: RPMI-8226 leukemia
# RXF 393 renal = tested on: RXF 393 renal
# SF-268 CNS = tested on: SF-268 CNS
# SF-295 CNS = tested on: SF-295 CNS
# SF-539 CNS = tested on: SF-539 CNS
# SK-MEL-2 melanoma = tested on: SK-MEL-2 melanoma
# SK-MEL-28 melanoma = tested on: SK-MEL-28 melanoma
# SK-MEL-5 melanoma = tested on: SK-MEL-5 melanoma
# SK-OV-3 ovarian = tested on: SK-OV-3 ovarian
# SN12C renal = tested on: SN12C renal
# SNB-19 CNS = tested on: SNB-19 CNS
# SNB-75 CNS = tested on: SNB-75 CNS
# SR leukemia = tested on: SR leukemia
# SW-620 colon = tested on: SW-620 colon
# T-47D breast = tested on: T-47D breast
# TK-10 renal = tested on: TK-10 renal
# U251 CNS = tested on: U251 CNS
# UACC-257 melanoma = tested on: UACC-257 melanoma
# UACC-62 melanoma = tested on: UACC-62 melanoma
# UO-31 renal = tested on: UO-31 renal
structure (smiles),measurement,setting,value
CC[C@H](C)[C@H](NC(=O)c1ccccn1)C(=O)N(C)[C@H](C[C@@H](OC(C)=O)c1nc(C(=O)N[C@@H](Cc2ccccc2)C[C@H](C)C(=O)OC)cs1)C(C)C,GI50,786-0 renal,16.1 µM
same,TGI,786-0 renal,59.7 µM
same,GI50,A549 NSCLC,48.9 µM
same,TGI,A549 NSCLC,> 100 µM
same,GI50,ACHN renal,27.3 µM
same,TGI,ACHN renal,> 100 µM
same,GI50,BT-549 breast,11.4 µM
same,TGI,BT-549 breast,42.5 µM
same,GI50,CAKI-1 renal,30.6 µM
same,TGI,CAKI-1 renal,> 100 µM
same,GI50,CCRF-CEM leukemia,21.5 µM
same,TGI,CCRF-CEM leukemia,> 100 µM
same,GI50,COLO 205 colon,16.8 µM
same,TGI,COLO 205 colon,42 µM
same,GI50,DU-145 prostate,34.7 µM
same,TGI,DU-145 prostate,> 100 µM
same,GI50,EKVX NSCLC,35.3 µM
same,TGI,EKVX NSCLC,> 100 µM
same,GI50,HCC-2998 colon,19.1 µM
same,TGI,HCC-2998 colon,> 100 µM
same,GI50,HCT-116 colon,11.2 µM
same,TGI,HCT-116 colon,50.3 µM
same,GI50,HCT-15 colon,21.7 µM
same,TGI,HCT-15 colon,> 100 µM
same,GI50,HL-60(TB) leukemia,7.89 µM
same,TGI,HL-60(TB) leukemia,54 µM
same,GI50,HOP-62 NSCLC,26.1 µM
same,TGI,HOP-62 NSCLC,> 100 µM
same,GI50,HOP-92 NSCLC,6.88 µM
same,TGI,HOP-92 NSCLC,80.9 µM
same,GI50,HS 578T breast,12.8 µM
same,TGI,HS 578T breast,45.7 µM
same,GI50,HT29 colon,26.3 µM
same,TGI,HT29 colon,> 100 µM
same,GI50,IGROV1 ovarian,11.6 µM
same,TGI,IGROV1 ovarian,> 100 µM
same,GI50,K-562 leukemia,17.5 µM
same,TGI,K-562 leukemia,> 100 µM
same,GI50,KM12 colon,8.08 µM
same,TGI,KM12 colon,> 100 µM
same,GI50,LOX IMVI melanoma,22.3 µM
same,TGI,LOX IMVI melanoma,> 100 µM
same,GI50,M14 melanoma,9.25 µM
same,TGI,M14 melanoma,38.4 µM
same,GI50,MALME-3M melanoma,15.7 µM
same,TGI,MALME-3M melanoma,> 100 µM
same,GI50,MCF7 breast,4.92 µM
same,TGI,MCF7 breast,> 100 µM
same,GI50,MDA-MB-231 breast,15.7 µM
same,TGI,MDA-MB-231 breast,48.2 µM
same,GI50,MDA-MB-435,2.08 µM
same,TGI,MDA-MB-435,5.64 µM
same,GI50,MOLT-4 leukemia,24.7 µM
same,TGI,MOLT-4 leukemia,90.2 µM
same,GI50,NCI-H226 lung,45 µM
same,TGI,NCI-H226 lung,> 100 µM
same,GI50,NCI-H23 lung,24.6 µM
same,TGI,NCI-H23 lung,> 100 µM
same,GI50,NCI-H460 lung,18.6 µM
same,TGI,NCI-H460 lung,57 µM
same,GI50,NCI-H522 lung,8.93 µM
same,TGI,NCI-H522 lung,38.9 µM
same,GI50,NCI/ADR-RES ovarian,25.3 µM
same,TGI,NCI/ADR-RES ovarian,> 100 µM
same,GI50,OVCAR-3 ovarian,10.9 µM
same,TGI,OVCAR-3 ovarian,40.7 µM
same,GI50,OVCAR-4 ovarian,31.1 µM
same,TGI,OVCAR-4 ovarian,> 100 µM
same,GI50,OVCAR-5 ovarian,27.9 µM
same,TGI,OVCAR-5 ovarian,> 100 µM
same,GI50,OVCAR-8 ovarian,33.3 µM
same,TGI,OVCAR-8 ovarian,> 100 µM
same,GI50,PC-3 prostate,23.6 µM
same,TGI,PC-3 prostate,> 100 µM
same,GI50,RPMI-8226 leukemia,6.98 µM
same,TGI,RPMI-8226 leukemia,> 100 µM
same,GI50,RXF 393 renal,7.56 µM
same,TGI,RXF 393 renal,60.4 µM
same,GI50,SF-268 CNS,29 µM
same,TGI,SF-268 CNS,> 100 µM
same,GI50,SF-295 CNS,21.7 µM
same,TGI,SF-295 CNS,> 100 µM
same,GI50,SF-539 CNS,17.1 µM
same,TGI,SF-539 CNS,50.8 µM
same,GI50,SK-MEL-2 melanoma,12.8 µM
same,TGI,SK-MEL-2 melanoma,> 100 µM
same,GI50,SK-MEL-28 melanoma,35.1 µM
same,TGI,SK-MEL-28 melanoma,> 100 µM
same,GI50,SK-MEL-5 melanoma,10.7 µM
same,TGI,SK-MEL-5 melanoma,42.5 µM
same,GI50,SK-OV-3 ovarian,33.4 µM
same,TGI,SK-OV-3 ovarian,> 100 µM
same,GI50,SN12C renal,30 µM
same,TGI,SN12C renal,> 100 µM
same,GI50,SNB-19 CNS,33.8 µM
same,TGI,SNB-19 CNS,> 100 µM
same,GI50,SNB-75 CNS,5.73 µM
same,TGI,SNB-75 CNS,98 µM
same,GI50,SR leukemia,3.88 µM
same,TGI,SR leukemia,81 µM
same,GI50,SW-620 colon,23.1 µM
same,TGI,SW-620 colon,> 100 µM
same,GI50,T-47D breast,43 µM
same,TGI,T-47D breast,> 100 µM
same,GI50,TK-10 renal,54.1 µM
same,TGI,TK-10 renal,> 100 µM
same,GI50,U251 CNS,28.5 µM
same,TGI,U251 CNS,> 100 µM
same,GI50,UACC-257 melanoma,36.8 µM
same,TGI,UACC-257 melanoma,> 100 µM
same,GI50,UACC-62 melanoma,4.56 µM
same,TGI,UACC-62 melanoma,> 100 µM
same,GI50,UO-31 renal,18 µM
same,TGI,UO-31 renal,> 100 µM
